Measurements: the supplement of paper PMC10307832

Experiments:
Experiment in all cases: relative viability (nuclei count vs DMSO), 5 days (fraction); higher = more cells survive
[1] = compound: Cn1cc(-c2cnn3c(N)c(Br)c([C@@H]4CCCNC4)nc23)cn1 + NC(=O)Nc1cc(-c2cccc(F)c2)sc1C(=O)N[C@H]1CCCNC1 [AZD7762] (partner 0.2 µM)
Method in brief: (§1)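 A single step with final 0.05% Triton X-100, 1% formaldehyde and 1 ug/ml Hoechst fixed the cells and stained nuclei 5 days after treatment. Lung cancer cell lines in 1536-well plates had been treated by pin tool the day after seeding with one drug alone or a fixed anchor-drug dose plus five library-drug doses (not always all listed) in √10 steps, and nuclei were counted on 4× images. Relative viability is the ratio of nuclei in treated wells to nuclei in vehicle wells, taken as the median of duplicate plates.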

[2] = compound: Cn1cc(-c2cnn3c(N)c(Br)c([C@@H]4CCCNC4)nc23)cn1 + Nc1nc2[nH]cc(CCc3ccc(C(=O)N[C@@H](CCC(=O)O)C(=O)O)cc3)c2c(=O)[nH]1 [Pemetrexed] (partner 0.2 µM)
Method in brief: as §1

[3] = compound: Cn1cc(-c2cnn3c(N)c(Br)c([C@@H]4CCCNC4)nc23)cn1 + COc1cccc2cc(-c3nc([C@H]4CC[C@H](C(=O)O)CC4)n4ncnc(N)c34)[nH]c12 [OSI-027] (partner 0.5 µM)
Method in brief: as §1

[4] = compound: Cn1cc(-c2cnn3c(N)c(Br)c([C@@H]4CCCNC4)nc23)cn1 + COc1cc2c(Oc3ccc(NC(=O)C4(C(=O)Nc5ccc(F)cc5)CC4)cc3F)ccnc2cc1OCCCN1CCOCC1 [Foretinib] (partner 0.25 µM)
Method in brief: as §1

HCC-827 was tested, and the relative viability ([1]; first compound 0.05 µM) was 0.183, the relative viability ([1]; first compound 0.1581 µM) was 0.188 and the relative viability ([1]; first compound 0.5 µM) was 0.193. For the same cell line, the relative viability ([1]; first compound 1.581 µM) was 0.211, the relative viability ([1]; first compound 5 µM) was 0.17 and the relative viability ([2]; first compound 0.05 µM) was 0.269. For the same cell line, the relative viability ([2]; first compound 0.1581 µM) was 0.202, the relative viability ([2]; first compound 0.5 µM) was 0.249 and the relative viability ([2]; first compound 1.581 µM) was 0.228. The relative viability ([2]; first compound 5 µM) was 0.187, the relative viability ([3]; first compound 0.05 µM) was 0.731 and the relative viability ([3]; first compound 0.1581 µM) was 0.907. It also gave a relative viability ([3]; first compound 0.5 µM) of 0.71, a relative viability ([3]; first compound 1.581 µM) of 0.715 and a relative viability ([3]; first compound 5 µM) of 0.705. The relative viability ([4]; first compound 0.05 µM) was 1.09, the relative viability ([4]; first compound 0.1581 µM) was 1.11 and the relative viability ([4]; first compound 0.5 µM) was 1.06. The relative viability ([4]; first compound 1.581 µM) was 1.02 and the relative viability ([4]; first compound 5 µM) was 1.02.

Work on HCC-78 yielded a relative viability ([1]; first compound 0.05 µM) of 0.515, a relative viability ([1]; first compound 0.1581 µM) of 0.647 and a relative viability ([1]; first compound 0.5 µM) of 0.648. For the same cell line, the relative viability ([1]; first compound 1.581 µM) was 0.563, the relative viability ([1]; first compound 5 µM) was 0.386 and the relative viability ([2]; first compound 0.05 µM) was 0.912. For the same cell line, the relative viability ([2]; first compound 0.1581 µM) was 0.842, the relative viability ([2]; first compound 0.5 µM) was 0.869 and the relative viability ([2]; first compound 1.581 µM) was 0.869. For the same cell line, the relative viability ([2]; first compound 5 µM) was 0.743, the relative viability ([3]; first compound 0.1581 µM) was 0.347 and the relative viability ([3]; first compound 0.5 µM) was 0.345. For the same cell line, the relative viability ([3]; first compound 1.581 µM) was 0.354, the relative viability ([3]; first compound 5 µM) was 0.517 and the relative viability ([4]; first compound 0.1581 µM) was 0.666. It also gave a relative viability ([4]; first compound 0.5 µM) of 0.561, a relative viability ([4]; first compound 1.581 µM) of 0.535 and a relative viability ([4]; first compound 5 µM) of 0.576.

Cell Line NCI-H2085 has a relative viability ([1]; first compound 0.05 µM) of 0.964, a relative viability ([1]; first compound 0.1581 µM) of 1.12 and a relative viability ([1]; first compound 0.5 µM) of 1.01. It also gave a relative viability ([1]; first compound 1.581 µM) of 0.765, a relative viability ([1]; first compound 5 µM) of 0.719 and a relative viability ([2]; first compound 0.05 µM) of 0.864. The relative viability ([2]; first compound 0.1581 µM) was 0.925, the relative viability ([2]; first compound 0.5 µM) was 0.921 and the relative viability ([2]; first compound 1.581 µM) was 0.789. For the same cell line, the relative viability ([2]; first compound 5 µM) was 0.7, the relative viability ([3]; first compound 0.05 µM) was 0.809 and the relative viability ([3]; first compound 0.1581 µM) was 0.954. For the same cell line, the relative viability ([3]; first compound 0.5 µM) was 0.78, the relative viability ([3]; first compound 1.581 µM) was 0.652 and the relative viability ([3]; first compound 5 µM) was 0.431. For the same cell line, the relative viability ([4]; first compound 0.05 µM) was 0.917, the relative viability ([4]; first compound 0.1581 µM) was 0.944 and the relative viability ([4]; first compound 0.5 µM) was 0.986. The relative viability ([4]; first compound 1.581 µM) was 0.894 and the relative viability ([4]; first compound 5 µM) was 0.625.

PC-14 was tested, and the relative viability ([1]; first compound 0.05 µM) was 0.348, the relative viability ([1]; first compound 0.1581 µM) was 0.273 and the relative viability ([1]; first compound 0.5 µM) was 0.332. It also gave a relative viability ([1]; first compound 1.581 µM) of 0.277, a relative viability ([1]; first compound 5 µM) of 0.182 and a relative viability ([2]; first compound 0.05 µM) of 0.13. It also gave a relative viability ([2]; first compound 0.1581 µM) of 0.1, a relative viability ([2]; first compound 0.5 µM) of 0.102 and a relative viability ([2]; first compound 1.581 µM) of 0.089. The relative viability ([2]; first compound 5 µM) was 0.0648, the relative viability ([3]; first compound 0.05 µM) was 1.02 and the relative viability ([3]; first compound 0.1581 µM) was 0.83. The relative viability ([3]; first compound 0.5 µM) was 0.638, the relative viability ([3]; first compound 1.581 µM) was 0.248 and the relative viability ([3]; first compound 5 µM) was 0.206. The relative viability ([4]; first compound 0.05 µM) was 0.974, the relative viability ([4]; first compound 0.1581 µM) was 1.04 and the relative viability ([4]; first compound 0.5 µM) was 0.933. It also gave a relative viability ([4]; first compound 1.581 µM) of 0.903 and a relative viability ([4]; first compound 5 µM) of 0.53.

Work on NCI-H2342 yielded a relative viability ([1]; first compound 0.05 µM) of 0.493, a relative viability ([1]; first compound 0.1581 µM) of 0.491 and a relative viability ([1]; first compound 0.5 µM) of 0.542. It also gave a relative viability ([1]; first compound 1.581 µM) of 0.487, a relative viability ([1]; first compound 5 µM) of 0.29 and a relative viability ([2]; first compound 0.05 µM) of 0.867. The relative viability ([2]; first compound 0.1581 µM) was 0.846, the relative viability ([2]; first compound 0.5 µM) was 0.762 and the relative viability ([2]; first compound 1.581 µM) was 0.788. It also gave a relative viability ([2]; first compound 5 µM) of 0.778, a relative viability ([3]; first compound 0.05 µM) of 0.52 and a relative viability ([3]; first compound 0.1581 µM) of 0.632. It also gave a relative viability ([3]; first compound 0.5 µM) of 0.585, a relative viability ([3]; first compound 1.581 µM) of 0.526 and a relative viability ([3]; first compound 5 µM) of 0.593. The relative viability ([4]; first compound 0.05 µM) was 1.13, the relative viability ([4]; first compound 0.1581 µM) was 1.19 and the relative viability ([4]; first compound 0.5 µM) was 1.09. For the same cell line, the relative viability ([4]; first compound 1.581 µM) was 0.92 and the relative viability ([4]; first compound 5 µM) was 1.07.

HCC-44 showed a relative viability ([1]; first compound 0.05 µM) of 0.889, a relative viability ([1]; first compound 0.1581 µM) of 1.01 and a relative viability ([1]; first compound 0.5 µM) of 1.02. For the same cell line, the relative viability ([1]; first compound 1.581 µM) was 0.964, the relative viability ([1]; first compound 5 µM) was 1.05 and the relative viability ([2]; first compound 0.05 µM) was 0.608. It also gave a relative viability ([2]; first compound 0.1581 µM) of 0.586, a relative viability ([2]; first compound 0.5 µM) of 0.674 and a relative viability ([2]; first compound 1.581 µM) of 0.321. The relative viability ([2]; first compound 5 µM) was 0.369, the relative viability ([3]; first compound 0.1581 µM) was 0.604 and the relative viability ([3]; first compound 0.5 µM) was 0.683. For the same cell line, the relative viability ([3]; first compound 1.581 µM) was 0.414 and the relative viability ([3]; first compound 5 µM) was 0.434.

Work on NCI-H2228 yielded a relative viability ([2]; first compound 0.05 µM) of 0.315, a relative viability ([2]; first compound 0.1581 µM) of 0.33 and a relative viability ([2]; first compound 0.5 µM) of 0.311. The relative viability ([2]; first compound 1.581 µM) was 0.22, the relative viability ([2]; first compound 5 µM) was 0.155 and the relative viability ([3]; first compound 0.05 µM) was 0.689. The relative viability ([3]; first compound 0.1581 µM) was 0.674, the relative viability ([3]; first compound 0.5 µM) was 0.592 and the relative viability ([3]; first compound 1.581 µM) was 0.458. It also gave a relative viability ([3]; first compound 5 µM) of 0.315, a relative viability ([4]; first compound 0.05 µM) of 0.747 and a relative viability ([4]; first compound 0.1581 µM) of 0.942. For the same cell line, the relative viability ([4]; first compound 0.5 µM) was 0.671, the relative viability ([4]; first compound 1.581 µM) was 0.738 and the relative viability ([4]; first compound 5 µM) was 0.433.

For ABC-1, the relative viability ([1]; first compound 0.05 µM) was 0.689, the relative viability ([1]; first compound 0.1581 µM) was 0.984 and the relative viability ([1]; first compound 0.5 µM) was 0.755. For the same cell line, the relative viability ([1]; first compound 1.581 µM) was 0.599, the relative viability ([1]; first compound 5 µM) was 0.5 and the relative viability ([3]; first compound 0.05 µM) was 0.518. For the same cell line, the relative viability ([3]; first compound 0.1581 µM) was 0.58, the relative viability ([3]; first compound 0.5 µM) was 0.382 and the relative viability ([3]; first compound 1.581 µM) was 0.39. For the same cell line, the relative viability ([3]; first compound 5 µM) was 0.264, the relative viability ([4]; first compound 0.05 µM) was 0.951 and the relative viability ([4]; first compound 0.1581 µM) was 1.07. For the same cell line, the relative viability ([4]; first compound 0.5 µM) was 1.02, the relative viability ([4]; first compound 1.581 µM) was 0.872 and the relative viability ([4]; first compound 5 µM) was 0.4.

With COR-L23 the relative viability ([2]; first compound 0.05 µM) was 0.196, the relative viability ([2]; first compound 0.1581 µM) was 0.178 and the relative viability ([2]; first compound 0.5 µM) was 0.178. The relative viability ([2]; first compound 1.581 µM) was 0.186, the relative viability ([2]; first compound 5 µM) was 0.139 and the relative viability ([3]; first compound 0.05 µM) was 0.813. It also gave a relative viability ([3]; first compound 0.1581 µM) of 0.927, a relative viability ([3]; first compound 0.5 µM) of 0.671 and a relative viability ([3]; first compound 1.581 µM) of 0.393. The relative viability ([3]; first compound 5 µM) was 0.255, the relative viability ([4]; first compound 0.05 µM) was 1.07 and the relative viability ([4]; first compound 0.1581 µM) was 1.13. The relative viability ([4]; first compound 0.5 µM) was 1.08, the relative viability ([4]; first compound 1.581 µM) was 0.907 and the relative viability ([4]; first compound 5 µM) was 0.439.
